Tests used:
[1] = test system: murine breast carcinoma Walker 256/B; test: antitumor activity in vivo against Walker 256/B implanted intratibia (TWI%); set-up: species or system murine tumor; male rats CD1; conditions: it/iv, days 1, 4, 7; for TWI % (tumor weight inhibition %): measured day 14; for Tox: Walker 256/B
Text: The compounds of the invention have been tested "in vivo" against the murine breast carcinoma Walker 256/B implanted intratibia (it). After inoculation into the bone marrow cavity of the tibia, this tumor grows inside the bone causing osteolytic lesions, paraneoplastic hypercalcaemia and by invading the surrounding tissues it forms a measurable tumor mass. It is therefore possible to determine both the antitumor activity on the extraosseous tumor and the anti-osteolytic effect (Cancer, 72(1), 91 (1993)).
The Walker 256/B tumor was provided by NCI Frederick Cancer Facility and was maintained in male rats CD1 by means of subcutaneous transplantation of tumor fragments of about 1 cm diameter every 10 days.
To perform the experiment, each rat was injected it with 2.5×10^6tumor cells; all the animals were anesthetized with a mixture of 10 mg/kg of Ketalar (Park-Davis) and 5 mg/kg of Rompun (Bayer). After implantation inside the tibia, the tumor grows causing osteolytic lesions associated with an increased activity of the osteoclasts. To obtain an injectable cell suspension, the tumor fragments were decomposed by means of enzymatic digestion with type IV collagenases (Sigma) at a concentration of 400 U/ml for 20 minutes at 37° C.
The compounds of the invention have been administered i.v. at days 1, 4 and 7 after the tumor transplantation. The extraosseous tumor mass has been measured at day 14 after tumor transplantation. The antitumor activity was determined as TWI% (tumor weight inhibition %) calculated according to the following formula:
TWI%=(100-TW meantreated animals /TW meancontrols)×100
wherein the TW for each animal is given by the formula: […]
in which a and b are respectively the maximum and minimum diameter of the tumor mass, expressed in mm.

[2] = test system: human multiple myeloma HS-Sultan cells; test: experimental model of human multiple myeloma HS-Sultan, mean survival time; type: in vivo, human cells in SCID rats; conditions: iv/iv, days +15, 18, 21; for TMS (MST = Mean Survival Time in days from the tumor inoculation): controls: MST 33-37; for Tox: HS-Sultan
Method: (§1) The experiment is performed by inoculating intravenously (i.v.) the human multiple myeloma HS-Sultan cells in SCID rats (immunodeficient rats) at day 0, followed by treatment i.v. with a compound of the invention at days 15, 18 and 21.
The activity of the compounds of the invention was evaluated in relationship with the following parameters:
Mean Survival Time (MST) in comparison with the not treated rats (which have a mean survival time of 30 days after tumor inoculation);

[3] = test system: human multiple myeloma HS-Sultan cells; test: histopathological examination of tumor infiltration in the human multiple myeloma model; type: in vivo, human cells in SCID rats; set-up: key to tumor infiltration score: -: absence of infiltration; +: slight infiltration; ++: middle to high infiltration; conditions: for tumor infiltration score: 38 days from the treatment; for effect on the tumor infiltration (in words): human multiple myeloma model
Method: as §1
evaluation of histological parameters (bone marrow invasion and degree of osteolytic lesions).

multiple myeloma = conditions: background statement; cited from earlier work

## N[C@@H](Cc1ccc(N(CCCl)CCCl)cc1)C(=O)O [melphalan]
[1]; 2.8 mg/kg
  TWI % (tumor weight inhibition %): 71%
  Tox: 11/144
[2]; 6 mg/kg
  TMS (MST = Mean Survival Time in days from the tumor inoculation): 59 days
  Tox: 1/5
[3]; Backbone (soft tissues), melfalan 6 mg/kg
  tumor infiltration score: -
[3]; Backbone, melfalan 6 mg/kg
  tumor infiltration score: +
[3]; Hind limbs (soft tissues), melfalan 6 mg/kg
  tumor infiltration score: -
[3]; Hind limbs, melfalan 6 mg/kg
  tumor infiltration score: +
[3]; Kidneys, melfalan 6 mg/kg
  tumor infiltration score: -
[3]; Sternum, melfalan 6 mg/kg
  tumor infiltration score: +
[3]
  effect on the tumor infiltration (in words): cannot be seen
Multiple myeloma
  activity against the multiple myeloma (in words): exploits activity against the multiple myeloma
  cure of the secondary bone tumor (in words): not able to cure the secondary bone tumor

## O=C(C=C(C(=O)O)C(P(=O)(O)O)P(=O)(O)O)NC(Cc1ccc(N(CCCl)CCCl)cc1)C(=O)O (stereo not drawn) [compound (B)]
[1]; 20 mg/kg
  TWI % (tumor weight inhibition %): 89%
  Tox: 0/8
[2]; 60 mg/kg
  TMS (MST = Mean Survival Time in days from the tumor inoculation): 70 days
  Tox: 1/6
[3]; Backbone (soft tissues), (B) oO mg/kg
  tumor infiltration score: -
[3]; Backbone, (B) oO mg/kg
  tumor infiltration score: -
[3]; Hind limbs (soft tissues), (B) oO mg/kg
  tumor infiltration score: -
[3]; Hind limbs, (B) oO mg/kg
  tumor infiltration score: -
[3]; Kidneys, (B) oO mg/kg
  tumor infiltration score: +
[3]; Sternum, (B) oO mg/kg
  tumor infiltration score: -
[3]
  effect on the tumor infiltration (in words): selective inhibitory effect on the tumor infiltration

Reference: patent publication US6207655A, “Bis-phosphonate confugates with alkylating moieties having antitumor activity” (Novuspharma S.p.A., priority 1997, dated 2001)
